Where “and” joins values, the source holds several entries; their conditions need not be identical. Equal values may be shown once.

The results in this text go back to patent publication US20190185865A1, “USE OF PROKARYOTIC TRANSCRIPTIONAL ACTIVATORS AS METABOLITE BIOSENSORS IN EUKARYOTIC CELLS” (Danmarks Tekniske Universitet, priority 2016, published 2019).

Data set [1] deals with yeast cells. Briefly: Growth of yeast cells in liquid medium containing CCM. The format is cell-based, Saccharomyces cerevisiae. The conditions noted are these: pH 4.5. On the procedure:
FIG. 9 (a) Uptake of cis,cis-muconic acid (CCM) at pH 4.5 by S. cerevisiae cells following 24 h of growth. (b) Representative growth curves of yeast cells in liquid medium containing different concentrations of CCM. OD values were determined at 1-h intervals over 25-h period. For both (a) and (b) data display means±s.d. from three (n=3) biological replicate cultivations.

The target in data set [2] is T1, BenM^H110R, F211V, Y286N (Acinetobacter baylyi, UniProt O68014, F211V/H110R/Y286N).
T1 construct: expressed in transfected cells; host or cells: Saccharomyces cerevisiae; centromeric plasmid (gap repair) or chromosomal integration, REV1p
T1 sequence (O68014 whole entry H110R/F211V/Y286N): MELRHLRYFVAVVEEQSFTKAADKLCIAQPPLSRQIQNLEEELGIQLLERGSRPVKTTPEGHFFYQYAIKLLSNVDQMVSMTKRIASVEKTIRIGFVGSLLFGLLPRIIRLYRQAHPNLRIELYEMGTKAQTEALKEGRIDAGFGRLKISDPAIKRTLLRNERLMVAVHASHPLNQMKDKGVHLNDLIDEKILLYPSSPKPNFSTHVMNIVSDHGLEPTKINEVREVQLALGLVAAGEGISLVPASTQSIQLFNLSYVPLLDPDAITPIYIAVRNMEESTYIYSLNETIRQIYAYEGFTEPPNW
Briefly: CCM-induced GFP expression in yeast expressing engineered BenM variants (epPCR library, FACS, flow cytometry). The format is cell-based, Saccharomyces cerevisiae. From the text: For optimization of the CCM inducibility of BenM, purified products from three consecutive rounds of error-prone PCR (epPCR) of the effector-binding domain (EBD, residues 90-304) of BenM, were co-transformed into yeast together with linearized centromeric plasmid according to Eckert-Boulet et al. (Eckert-Boulet, N., Pedersen, M. L., Krogh, B. O. & Lisby, M. Optimization of ordered plasmid assembly by gap repair in Saccharomyces cerevisiae. Yeast 29, 323-34 (2012)), to allow for in vivo gap repair and library reconstitution of wild-type BenM DNA binding domain (DBD) fused to EBD variants expressed from REV1p. For epPCR we used the GeneMorph II kit according to manufacturer's description (Agilent Technologies). Transformed yeast contained a chromosomal integration of the 209 bp_CYC1p_BenO_T1 promoter controlling the expressing of GFP at EasyClone site 4 on chromosome XII (Mikkelsen, M. D. et al. Microbial production of indolylglucosinolate through engineering of a multi-gene pathway in a versatile yeast expression platform. Metab. Eng. 14, 104-11 (2012)), to allow for FACS-based screening of improved CCM-inducible BenM variants.
A two-step method was used to sort for BenM variants that specifically induce in the presence of CCM. Cells (10× library size, approx. 400,000 cells) were inoculated in mineral medium without inducer and incubated for 24 h at 30° C., diluted into PBS, and then GFP intensity of individual cells was measured using a BD Biosciences Aria (Becton Dickinson) with a blue laser (488 nm) by applying tight gates on the FSC and SSC channels. Only cells displaying auto-fluorescence intensities were sorted in order to limit auto-activating BenM variants. Sorted cells were recovered in mineral medium, followed by subculturing (1:100) into mineral medium containing 1.4 mM (200 mg/L) cis,cis-muconic acid. The cells were grown for 24 h at 30° C., washed and subjected to a second round of FACS. […] Individual clones were subsequently validated using flow cytometry.
Events were analyzed using FlowJo software (TreeStar Inc.).

Data set [3] addresses T1, BenM^H110R, F211V, Y286N. Put plainly: CCM biosensor output versus CCM titers in CCM-producing yeast strains (HPLC, flow cytometry). The format is cell-based. As to the method: The CCM production strains were cultivated in 24-deep well plate with air-penetrable lids (EnzyScreen) to test for the production of CCM. Colonies from the individual strain were inoculated in 1 mL synthetic drop-out medium (Sigma-Aldrich), selecting for URA, HIS and LEU markers, and grown at 30° C. with 250 rpm agitation at 5 cm orbit cast for 24 h. 300 μL of the overnight cultures were used to inoculate 3 mL mineral medium (pH 4.5) in 24-deep well plate and incubated for 24-72 h at the same conditions as above. Experiments were performed in triplicates. The culture broth was centrifuged 3,500×rpm and the supernatant analyzed for CCM concentration using HPLC. For this purpose, samples were analyzed for 45 min using Aminex HPX-87H ion exclusion column with a 1 mM H2SO4 flow of 0.6 mL/min. The temperature of the column was 60° C. Refractive index and UV detectors (Dionex) were used for detection of CCM (250 nm). CCM concentrations were quantified by comparison with the spectrum of the standards. […] Naringenin was quantified using a quadratic calibration curve with authentic standards ranging from 0.039 mg/I to 20 mg/I using QuanLynx software (Waters).
Events were analyzed using FlowJo software (TreeStar Inc.). […]

For `O=C(O)/C=C\C=C/C(=O)O` [CCM, cis, cis-muconic acid], the “growth of yeast in presence of CCM” value in data set [1] is on record as “without any growth defects”. In addition, the “specificity of GFP induction among diacids tested” value in data set [2] (BenM^H110R, diacids 1.4 mM, pH 4.5, 24 h) is listed as “induce GFP expression specifically in response to CCM”. Besides, the “maximum induction of GFP output” value in data set [2] (chromosomally integrated BenM^H110R, 1.4 mM (200 mg/L) CCM, 24 h) was 10 fold. Moreover, in data set [2] (plasmid-based expression of BenM^H110R), the “GFP output upon CCM induction” value amounted to 6 fold. In data set [3] (72 h of cultivation), the “titers at which GFP outputs were saturated” value was > 1.41 mM and > 200 mg/L. In addition, the “correlation (r) between GFP output and CCM production titers” value in data set [3] (six CCM production strains and null strain, 24 h) is 0.98.
